Measured values published in BindingDB's records for PubMed 9463480 (F. Hoffmann-La Roche, 1998).

Target: Metabotropic glutamate receptor 2 (Homo sapiens, UniProt Q14416)
Sequence (Q14416 whole entry): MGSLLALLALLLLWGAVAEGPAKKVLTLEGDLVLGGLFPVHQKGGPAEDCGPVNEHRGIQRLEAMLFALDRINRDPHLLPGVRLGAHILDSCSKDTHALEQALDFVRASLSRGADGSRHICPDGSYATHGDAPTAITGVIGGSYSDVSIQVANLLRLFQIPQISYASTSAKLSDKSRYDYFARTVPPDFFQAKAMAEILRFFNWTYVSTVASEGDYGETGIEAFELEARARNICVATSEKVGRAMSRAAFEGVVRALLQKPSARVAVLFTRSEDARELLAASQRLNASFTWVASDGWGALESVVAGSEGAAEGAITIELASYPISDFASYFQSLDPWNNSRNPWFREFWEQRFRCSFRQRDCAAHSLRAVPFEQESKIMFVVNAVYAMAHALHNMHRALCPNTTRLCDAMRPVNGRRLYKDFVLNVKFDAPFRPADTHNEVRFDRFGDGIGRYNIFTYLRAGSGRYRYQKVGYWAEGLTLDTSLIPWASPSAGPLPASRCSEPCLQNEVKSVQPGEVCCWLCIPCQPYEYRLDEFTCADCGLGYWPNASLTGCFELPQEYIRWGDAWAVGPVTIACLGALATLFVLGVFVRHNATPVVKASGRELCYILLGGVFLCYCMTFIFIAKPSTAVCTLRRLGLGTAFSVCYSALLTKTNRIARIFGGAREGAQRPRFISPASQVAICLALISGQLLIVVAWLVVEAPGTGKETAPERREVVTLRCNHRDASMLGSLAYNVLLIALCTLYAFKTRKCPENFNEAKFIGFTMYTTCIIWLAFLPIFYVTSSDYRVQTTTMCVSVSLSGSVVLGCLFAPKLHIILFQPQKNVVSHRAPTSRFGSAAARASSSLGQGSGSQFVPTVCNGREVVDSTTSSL

| SMILES | Ki [µM] |
| --- | --- |
| N[C@@H](CCP(=O)(O)O)C(=O)O | > 10 |
| N[C@@]1(C(=O)O)CC[C@H](C(=O)O)C1 [1S, 3R-ACPD] | 2 |
| N[C@@H](Cn1oc(=O)[nH]c1=O)C(=O)O [2-amino-3-(3,5-dioxo[1,2,4]oxadiazolidin-2-yl)propionic acid] | > 10 |
| N[C@H](CP(=O)(O)O)C(=O)O [CAS_23052-80-4] | > 10 |

Results, then the compound that gave them:

| Ki [µM] | SMILES |
| --- | --- |
| > 10 | C[C@@](N)(C(=O)O)c1ccc(C(=O)O)cc1 (racemic) |
| 0.01 | NC(Cn1cnc2c(=O)[nH]c(=O)[nH]c21)(C(=O)O)C1CC1C(=O)O (centres undefined) [CAS_5311260] |
| 0.06 | N[C@H](C(=O)O)C1[C@@H](C(=O)O)[C@@H]1C(=O)O (some centres undefined) [DCG-IV] |
| 0.07 | N[C@H](C(=O)O)[C@H]1C[C@H]1C(=O)O [L-CCG-IV] |
| > 10 | C[C@](N)(C(=O)O)C1C[C@@H]1C(=O)O (some centres undefined) [MCCG-I] |
